According to patent EP0655439A2, “5,6-Bicyclic glycoprotein IIb IIIa antagonists useful in inhibition of platelet aggregation” (ELI LILLY AND COMPANY, priority 1993, dated 1995):

Tests used:
GPIIb-IIIa = target: T1, GPIIb-IIIa (Homo sapiens, UniProt P05106+P08514); test: GPIIb-IIIa ELISA assay (inhibition of fibrinogen binding to immobilized receptor); conditions: purified platelet GPIIb-IIIa coated on plates; biotinylated fibrinogen 10 nM; 3 hours at 25 °C
T1 construct: Purified platelet GPIIb-IIIa receptor was prepared as described by Fitzgerald, L.A., et al; from tissue; host or cells: platelets (purified by the method of Fitzgerald et al., Anal Biochem 1985)
Protocol: In the following assay, GPllb-Illa is prepared in purified form, by a method such as described by Fitzgerald, L.A., et al., Anal Biochem (1985) 151:159-177,(the disclosure of which is incorporated herein by reference). GPIIb-IIIa is coated onto microtiter plates. The coated support is then contacted with fibrinogen and with the test material and incubated for a sufficient time to permit maximal binding of fibrinogen to the immobilized GPIIb-IIIa. Fibrinogen is typically provided at a concentration of about 5-50 nM and the test material can, if desired, be added at a series of dilution. Typical incubations are 2-4 hr at 25°C, the time and temperature being interdependent.
After incubation, the solution containing the fibrinogen and test material is removed and the level of binding of fibrinogen measured by quantitating bound fibrinogen to GPllb-llla. Any suitable means of detection may be used, but it is convenient to employ labeled fibrinogen, for example using biotinylated labels. Such methods are well known in the art.
Purified platelet GPIIb-IIIa receptor was prepared as described by Fitzgerald, L.A., et al., Anal Biochem (1985) 151:169-177. Vitronectin receptor was prepared as described by Smith, J.W., J. Bioi Chem (1988) 263:18726-18731. After purification, the receptors were stored in 0.1% Triton X-100 at 0.1-1.0 mg/ml.
The receptors were coated to the wells of 96-well flat-bottom ELISA plates (Linbro EIA-Plus microtiter plate, Flow Laboratories) after diluting 1:200 with a solution of 20 mM Tris-HCI, 150 MM NaCi, 1 mM CaCl2, pH 7.4, to reduce the Triton x-100 concentration to below its critical micellar concentration and adding an aliquot of 100 ul to each well. The wells were all allowed to incubate overnight at 4°C, and then aspirated to dryness. Additional sites were blocked by the addition of bovine serum albumin (BSA) at 35 mg/ml in the above buffer for 2 hours at 30°C to prevent nonspecific binding. The wells were then washed once with binding buffer ([…] Tris-HCI, 100 mM Nacl 2 mM CaC12, 1 mg/ml BSA).
The corresponding ligands (fibrinogen, von Willebrand Factor, orvitronectin) were conjugated to biotin using commercially available reagents and standard protocols. The labeled ligands were added to the receptor- coated wells at final concentration of 10 nM (100 ul/well) and incubated for 3 hours at 25 °C in the presence or absence of the test samples. After incubation, the wells are aspirated to dryness and bound ligand is quan- titated.
The bound protein is detected by the addition of antibiotin antibody conjugated to alkaline phosphatase followed by addition of substrate (p-nitrcphenyl phosphate), and determination of the optical density of each well at 405 nM. Decreased color development is observed in wells incubated with test samples which inhibit binding of ligand to receptor.

[1] = system: human platelet-rich plasma; test: Platelet aggregation assay (PRP), Aggregation-Human/PRP/ADP; assay type: cell-based; conditions: 1 min, 1 minute at 37°C before aggregating agent, most often ADP 5 µM
Protocol: In addition to the ELISA GPllb-Illa assay previously described the Aggregation-Human/PRP/ADP Assay is useful for evaluating therapeutic compounds.
Platelet-rich plasma was prepared from healthy human volunteers for use in determining inhibition of platelet aggregation by the compounds. Blood was collected via a 21 gauge butterfly cannula, using a two-syringe technique into 1/10 volume of 10% trisodium citrate.
Platelet-rich plasma was prepared at room temperature by centrifugation of the citrated whole blood at 100 x g for 15 minutes. The platelet rich plasma contained approximately 200-400,000 platelets/µl.
Platelet-poor plasma was prepared by centrifugation of citrated whole blood at 12,000 x g for 2 minutes.
Platelet aggregation was assayed in a 4-channel platelet aggregation profiler (PAP-4, Biodata, Hatboro, PA) according to the manufacturers directions. Inhibition of platelet aggregation was studied by adding varying amounts of test compounds to stirred human platelet-rich plasma. Specifically, the human platelet-rich plasma was incubated with test compounds for 1 minute at 37°C prior to the addition of a variety of aggregating agents most often ADP 5 µM, but also 1 µg/ml collagen, 1 µM U46619 or 1 µM platelet activating factor.

T1 sequence (P08514 32-887 limits assumed): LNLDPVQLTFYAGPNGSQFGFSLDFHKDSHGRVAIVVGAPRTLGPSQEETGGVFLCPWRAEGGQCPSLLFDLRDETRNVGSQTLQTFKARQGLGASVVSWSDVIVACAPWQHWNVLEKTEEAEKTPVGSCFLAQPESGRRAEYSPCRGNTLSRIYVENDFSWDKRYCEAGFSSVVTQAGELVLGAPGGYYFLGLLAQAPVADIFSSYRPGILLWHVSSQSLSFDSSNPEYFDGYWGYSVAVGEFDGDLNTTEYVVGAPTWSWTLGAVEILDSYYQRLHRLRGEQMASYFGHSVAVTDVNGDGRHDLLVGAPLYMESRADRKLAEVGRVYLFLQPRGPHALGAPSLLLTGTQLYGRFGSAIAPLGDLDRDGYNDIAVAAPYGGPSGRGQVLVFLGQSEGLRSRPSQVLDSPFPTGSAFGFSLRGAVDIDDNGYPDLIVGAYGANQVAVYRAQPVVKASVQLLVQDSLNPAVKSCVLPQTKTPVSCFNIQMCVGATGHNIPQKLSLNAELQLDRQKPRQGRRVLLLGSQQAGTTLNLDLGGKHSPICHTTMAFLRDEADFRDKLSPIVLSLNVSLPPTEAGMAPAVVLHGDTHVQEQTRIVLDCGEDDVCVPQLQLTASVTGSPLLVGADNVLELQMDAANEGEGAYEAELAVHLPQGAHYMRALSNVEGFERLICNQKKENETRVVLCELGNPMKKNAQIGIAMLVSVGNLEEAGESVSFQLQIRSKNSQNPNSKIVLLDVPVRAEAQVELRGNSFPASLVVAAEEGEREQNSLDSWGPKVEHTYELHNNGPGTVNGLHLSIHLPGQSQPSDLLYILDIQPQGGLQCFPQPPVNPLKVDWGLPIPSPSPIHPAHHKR
T1 sequence (P08514 891-1039 partner limits assumed): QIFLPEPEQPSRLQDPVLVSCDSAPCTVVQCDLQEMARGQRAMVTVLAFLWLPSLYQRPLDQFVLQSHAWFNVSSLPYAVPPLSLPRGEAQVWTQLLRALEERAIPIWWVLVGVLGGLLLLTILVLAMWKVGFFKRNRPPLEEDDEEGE
T1 sequence (P05106 27-788): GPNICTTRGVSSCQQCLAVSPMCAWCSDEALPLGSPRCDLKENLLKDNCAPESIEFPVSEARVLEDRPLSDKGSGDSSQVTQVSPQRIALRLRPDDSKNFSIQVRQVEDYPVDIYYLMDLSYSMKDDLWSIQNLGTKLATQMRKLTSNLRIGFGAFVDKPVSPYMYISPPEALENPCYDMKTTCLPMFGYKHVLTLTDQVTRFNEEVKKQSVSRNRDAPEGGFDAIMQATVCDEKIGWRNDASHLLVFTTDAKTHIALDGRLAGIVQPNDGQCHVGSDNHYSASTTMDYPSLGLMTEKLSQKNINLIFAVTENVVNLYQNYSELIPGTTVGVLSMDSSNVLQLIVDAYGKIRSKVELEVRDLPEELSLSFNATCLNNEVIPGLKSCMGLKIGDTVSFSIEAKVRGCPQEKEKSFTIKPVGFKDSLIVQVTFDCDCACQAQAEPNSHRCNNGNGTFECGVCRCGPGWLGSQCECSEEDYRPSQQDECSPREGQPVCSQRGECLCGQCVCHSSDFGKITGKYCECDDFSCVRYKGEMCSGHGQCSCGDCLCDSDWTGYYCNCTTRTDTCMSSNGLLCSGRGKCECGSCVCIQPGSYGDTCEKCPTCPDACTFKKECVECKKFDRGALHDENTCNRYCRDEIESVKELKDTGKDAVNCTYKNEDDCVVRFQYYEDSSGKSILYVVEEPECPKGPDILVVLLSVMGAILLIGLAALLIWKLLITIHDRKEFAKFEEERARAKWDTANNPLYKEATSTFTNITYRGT

| Compound | IC50 (GPIIb-IIIa) | IC50 [1] |
| --- | --- | --- |
| CCCC(CC1CCC(CNC(=O)c2cc3cc(C(=N)N)ccc3[nH]2)CC1)C(=O)O (stereo not drawn) [Example 11] | > 100 µM | > 100 µM |
| CCC(CCCCCNC(=O)c1cc2cc(C(=N)N)ccc2[nH]1)C(=O)O (stereo not drawn) [Example 14] | 21.5 µM | > 100 µM |
| CCCCCCC(CCCCCNC(=O)c1cc2cc(C(=N)N)ccc2[nH]1)C(=O)O (stereo not drawn) [Example 16] | 19 µM | > 100 µM |
| N=C(N)c1ccc2[nH]c(C(=O)NCCCCCCC(=O)O)cc2c1 [Example 26] | 0.7 µM | 2.7 µM |
| CC(CCCCNC(=O)c1cc2cc(C(=N)N)ccc2[nH]1)CC(=O)O (stereo not drawn) [Example 17] | 0.21 µM | 2.7 µM |
| CC(CCCCNC(=O)c1cc2cc(C(=N)N)ccc2s1)CC(=O)O (stereo not drawn) [Example 31] | 0.32 µM | 3.3 µM |
| CN(CCCCCCC(=O)O)C(=O)c1cc2cc(C(=N)N)ccc2[nH]1 [Example 21] | 0.38 µM | 2.5 µM |
| Cc1c(C(=O)NCCCCCCC(=O)O)[nH]c2ccc(C(=N)N)cc12 [Example 33] | 2.6 µM | 5 µM |
| CC(CCCCNC(=O)c1cc2cc(C(=N)N)ccc2o1)CC(=O)O (stereo not drawn) [Example 32] | 0.01 µM | 0.23 µM |
| N=C(N)c1ccc2oc(C(=O)NCCCCCCC(=O)O)cc2c1 [Example 22] | 0.04 µM | 0.27 µM |
| N=C(N)c1ccc2[nH]c(C(=O)NCCCCC(=O)O)cc2c1 [Example 27] |  | 100 µM |
| N=C(N)c1ccc2cc(C(=O)NCCCCCCC(=O)O)[nH]c2c1 [Example 25] | 0.13 µM | 0.8 µM |
| N=C(N)c1ccc2[nH]c(C(=O)NCCOCCCC(=O)O)cc2c1 [Example 12] | 1.2 µM | 9 µM |
| CCC(CCCCNC(=O)c1cc2cc(C(=N)N)ccc2[nH]1)CC(=O)O (stereo not drawn) [Example 18] | 0.33 µM | 5.8 µM |
| CCCCCCC(CCCCNC(=O)c1cc2cc(C(=N)N)ccc2[nH]1)CC(=O)O (stereo not drawn) [Example 20] | 0.8 µM | 70 µM |
| CC(CCCCCNC(=O)c1cc2cc(C(=N)N)ccc2[nH]1)C(=O)O (stereo not drawn) [Example 13] | 5.25 µM | 28 µM |
| N=C(N)c1ccc2sc(C(=O)NCCCCCCC(=O)O)cc2c1 [Example 23] | 0.74 µM | 9 µM |
| Cn1c(C(=O)NCCCCCCC(=O)O)cc2cc(C(=N)N)ccc21 [Example 30] | 3 µM | 8 µM |
| NCc1ccc2[nH]c(C(=O)NCCCCCCC(=O)O)cc2c1 [Example 36] | 4.23 µM | 25 µM |
| CCCCC(CCCCNC(=O)c1cc2cc(C(=N)N)ccc2[nH]1)CC(=O)O (stereo not drawn) [Example 19] | 0.63 µM | 30 µM |
| N=C(N)c1ccc2[nH]c(C(=O)NCc3ccc(CCC(=O)O)cc3)cc2c1 [Example 9] | 4.45 µM | 40 µM |
| N=C(N)c1ccc2[nH]c(C(=O)NCCCCCC(=O)O)cc2c1 [Example 28] | 42.7 µM | 100 µM |
| N=C(N)c1ccc(COc2ccc3oc(C(=O)NCC(=O)O)cc3c2)cc1 [Example 35] | 3.4 µM | 100 µM |
